Results as given in patent US20180110762A1, “Compositions Methods for Treating Chronic Kidney Disease” (Merck Sharp & Dohme Corp, priority 2015, published 2018).

Columns and labels:
[1] = target: T1, Human recombinant integrin αvβ1 (Homo sapiens, UniProt P05556+P06756); experiment: Solid phase receptor assay, αvβ1 (fibronectin); type: binding
T1 construct: purchased R&D Systems
Experimental: The assay was performed according to the method described in International Patent Publication WO 2014/015054 A1 “Beta Amino Acid Derivatives As Integrin Antagonists.” Briefly, 96-well plates were coated overnight with purified fibronectin or vitronectin (R&D Systems) in TBS+ buffer (25 mM Tris 7.4, 137 mM NaCl, 2.7 mM KCl, 1 mM CaCl2, 1 mM MgCl2, 1 mM MnCl2). Compound A was added at different concentrations to recombinant human integrin proteins (R&D Systems) reconstituted in TBS+/0.1% bovine serum albumin, and 50 μL of this mixture were added to the empty wells of the coated plate and incubated for 1-2 hours. After 3 washes, 50 μL of biotinylated antibody (R&D Systems) in TBS+/0.1% bovine serum albumin were added. The procedure continued with three more washes, addition of 50 μL of streptavidin-conjugated horseradish peroxidase (R&D Systems), and incubation for 20 minutes. After 3 more washes, 50 μL of tetramethylbenzidine (TMB) substrate (SIGMA) were added and plates were read after 20 min by colorimetric detection at 650 nm wavelength in an EnVision Multilabel Plate Reader (Perkin Elmer). The concentrations of fibronectin used were: 2 μg/mL for the α5β1 assay and 5 μg/mL for the αvβ1 assay. The concentrations of vitronectin used were: 1 μg/mL for the αvβ3 assay and 0.25 μg/mL for the αvβ5 assay. […]

[2] = tested on: male obese ZSF1 rats (diabetic nephropathy model); experiment: ZSF1 rat study: plasma triglyceride and cholesterol; type: in vivo; settings: for Plasma Triglyceride / plasma cholesterol levels: obese ZSF1 rats; for plasma cholesterol levels: in mg/dL (unit assumed)
Experimental: The effects of Compound A (“A”) on renal function, plasma triglycerides, plasma cholesterol, kidney collagen I, kidney collagen III, renal histology, glomerular filtration rate, fibrosis score, and mRNA gene expression (profibrotic genes and integrin β3) were evaluated in male obese ZSF1 rats (a hybrid F1 of Zucker diabetic fatty rat and spontaneously hypertensive heart failure rat; a diabetic nephropathy model) when administered as in-feed for 28 weeks. Sixty obese male ZSF1 rats were randomized to five groups: Obese control (n=12), Compound A 60 mpk (n=12), Compound A 200 mpk (n=12), Compound A 400 mpk (n=12), Enalapril 10 mpk (n=12); Eight lean male ZSF1 rats were used for normal control. Renal functional changes were monitored by blood and urine analysis following in-feed dosing for 28 weeks. Compound exposure was also monitored during the study.

T1 sequence (P06756 31-992 limits assumed): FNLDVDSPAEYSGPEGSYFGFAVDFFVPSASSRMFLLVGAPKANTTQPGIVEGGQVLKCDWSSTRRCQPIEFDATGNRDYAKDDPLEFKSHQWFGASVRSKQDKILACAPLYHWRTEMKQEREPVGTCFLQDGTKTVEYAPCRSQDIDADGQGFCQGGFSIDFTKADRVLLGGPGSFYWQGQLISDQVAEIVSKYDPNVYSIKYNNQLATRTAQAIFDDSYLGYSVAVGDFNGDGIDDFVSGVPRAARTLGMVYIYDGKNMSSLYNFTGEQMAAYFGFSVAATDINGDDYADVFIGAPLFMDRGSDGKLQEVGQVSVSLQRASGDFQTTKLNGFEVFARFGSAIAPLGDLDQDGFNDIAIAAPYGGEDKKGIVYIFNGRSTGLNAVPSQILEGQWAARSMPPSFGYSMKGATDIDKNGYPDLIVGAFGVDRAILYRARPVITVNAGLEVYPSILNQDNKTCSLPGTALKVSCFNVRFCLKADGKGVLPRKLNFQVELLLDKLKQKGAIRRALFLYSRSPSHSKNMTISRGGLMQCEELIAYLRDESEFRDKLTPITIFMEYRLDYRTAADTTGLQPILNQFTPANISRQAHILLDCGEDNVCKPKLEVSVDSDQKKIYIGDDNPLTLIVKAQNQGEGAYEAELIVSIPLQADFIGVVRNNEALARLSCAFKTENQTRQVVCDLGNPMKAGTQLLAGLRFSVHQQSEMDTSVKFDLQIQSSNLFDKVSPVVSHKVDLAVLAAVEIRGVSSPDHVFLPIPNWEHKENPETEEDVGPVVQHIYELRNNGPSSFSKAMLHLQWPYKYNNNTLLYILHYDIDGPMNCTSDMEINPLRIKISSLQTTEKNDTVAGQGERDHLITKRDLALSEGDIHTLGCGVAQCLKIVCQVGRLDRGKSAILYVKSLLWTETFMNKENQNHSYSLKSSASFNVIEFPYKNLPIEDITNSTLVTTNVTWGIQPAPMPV
T1 sequence (P05556 21-728 limits assumed): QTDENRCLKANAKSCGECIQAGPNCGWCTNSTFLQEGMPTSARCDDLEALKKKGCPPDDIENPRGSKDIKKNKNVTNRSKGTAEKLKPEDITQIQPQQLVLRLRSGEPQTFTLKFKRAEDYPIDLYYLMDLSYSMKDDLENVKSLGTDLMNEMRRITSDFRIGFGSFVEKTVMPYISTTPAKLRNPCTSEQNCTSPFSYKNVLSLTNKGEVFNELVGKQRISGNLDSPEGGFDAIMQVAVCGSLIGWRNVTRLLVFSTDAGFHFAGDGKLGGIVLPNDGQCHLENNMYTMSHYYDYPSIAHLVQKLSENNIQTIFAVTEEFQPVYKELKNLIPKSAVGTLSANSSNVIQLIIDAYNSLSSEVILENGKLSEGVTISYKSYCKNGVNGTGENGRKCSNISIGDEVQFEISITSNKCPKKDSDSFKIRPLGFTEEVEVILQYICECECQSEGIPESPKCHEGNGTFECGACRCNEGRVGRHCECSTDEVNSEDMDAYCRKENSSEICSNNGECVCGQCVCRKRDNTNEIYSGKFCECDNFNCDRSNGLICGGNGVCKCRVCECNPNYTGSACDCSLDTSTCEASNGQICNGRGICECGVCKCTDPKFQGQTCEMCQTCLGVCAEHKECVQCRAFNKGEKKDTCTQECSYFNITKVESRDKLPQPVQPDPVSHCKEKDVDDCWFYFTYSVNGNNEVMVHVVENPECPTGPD

IC50 ([1]; αvβ1, first of two experiments): 2.1 nM
IC50 ([1]; αvβ1, second of two experiments): 0.9 nM
Compound: COc1ccc([C@H](CC(=O)O)N2CCN(CCCc3ccc4c(n3)NCCC4)C2=O)cn1 [Compound A, 3-{2-Oxo-3-[3-(5,6,7,8-tetrahydro-[1,8]naphthyridin-2-yl)-propyl]imidazolidin-1-yl}-3 (S)-(6-methoxy-pyridin-3-yl)-propionic acid]
effect on plasma triglyceride levels ([2]; 200 mpk at week 4 and 400 mpk at week 16 and 28): significantly decreased
effect on plasma cholesterol levels ([2]; 200 mpk at week 28 and 400 mpk at week 16, 21, 24, and 28): significantly decreased
plasma TG and cholesterol ([2]; high doses, obese ZSF-1 rats vs untreated obese ZSF-1 rats (summary)): improvement of plasma TG and cholesterol
Plasma Triglyceride ([2]; 60 mpk in-feed, week 2): 2535.3 ± 170.6 mg/dL
plasma cholesterol levels ([2]; 60 mpk in-feed, week 2): 229.3 ± 9.6
Plasma Triglyceride ([2]; 60 mpk in-feed, week 4): 2807.5 ± 143.4 mg/dL
plasma cholesterol levels ([2]; 60 mpk in-feed, week 4): 262.7 ± 10.5
Plasma Triglyceride ([2]; 60 mpk in-feed, week 6): 2873.2 ± 116.5 mg/dL
plasma cholesterol levels ([2]; 60 mpk in-feed, week 6): 261.2 ± 9.9
Plasma Triglyceride ([2]; 60 mpk in-feed, week 8): 3187.9 ± 157.1 mg/dL
plasma cholesterol levels ([2]; 60 mpk in-feed, week 8): 289.1 ± 9.5
Plasma Triglyceride ([2]; 60 mpk in-feed, week 12): 3138.5 ± 168.9 mg/dL
plasma cholesterol levels ([2]; 60 mpk in-feed, week 12): 315.4 ± 13.2
Plasma Triglyceride ([2]; 60 mpk in-feed, week 16): 3120.3 ± 191.6 mg/dL
plasma cholesterol levels ([2]; 60 mpk in-feed, week 16): 357.8 ± 13.3
Plasma Triglyceride ([2]; 60 mpk in-feed, week 21): 2933.4 ± 317.5 mg/dL
plasma cholesterol levels ([2]; 60 mpk in-feed, week 21): 392.9 ± 20.6
Plasma Triglyceride ([2]; 60 mpk in-feed, week 24): 3093.3 ± 355.2 mg/dL
plasma cholesterol levels ([2]; 60 mpk in-feed, week 24): 448.0 ± 23.8
Plasma Triglyceride ([2]; 60 mpk in-feed, week 28): 3218.7 ± 427.5 mg/dL
plasma cholesterol levels ([2]; 60 mpk in-feed, week 28): 495.7 ± 29.4
Plasma Triglyceride ([2]; 60 mpk in-feed, week −2): 2046.8 ± 72.0 mg/dL
plasma cholesterol levels ([2]; 60 mpk in-feed, week −2): 192.0 ± 4.5
Plasma Triglyceride ([2]; 200 mpk in-feed, week 2): 2111.1 ± 123.5 mg/dL
plasma cholesterol levels ([2]; 200 mpk in-feed, week 2): 205.4 ± 7.8
Plasma Triglyceride ([2]; 200 mpk in-feed, week 4): 2592.4 ± 206.8 mg/dL
plasma cholesterol levels ([2]; 200 mpk in-feed, week 4): 243.5 ± 9.2
Plasma Triglyceride ([2]; 200 mpk in-feed, week 6): 2534.6 ± 185.5 mg/dL
plasma cholesterol levels ([2]; 200 mpk in-feed, week 6): 233.7 ± 9.1
Plasma Triglyceride ([2]; 200 mpk in-feed, week 8): 3325.3 ± 189.8 mg/dL
plasma cholesterol levels ([2]; 200 mpk in-feed, week 8): 289.3 ± 9.3
Plasma Triglyceride ([2]; 200 mpk in-feed, week 12): 3188.3 ± 191.4 mg/dL
plasma cholesterol levels ([2]; 200 mpk in-feed, week 12): 315.9 ± 11.2
Plasma Triglyceride ([2]; 200 mpk in-feed, week 16): 2930.4 ± 217.5 mg/dL
plasma cholesterol levels ([2]; 200 mpk in-feed, week 16): 346.8 ± 12.1
Plasma Triglyceride ([2]; 200 mpk in-feed, week 21): 2717.2 ± 199.8 mg/dL
plasma cholesterol levels ([2]; 200 mpk in-feed, week 21): 366.7 ± 14.1
Plasma Triglyceride ([2]; 200 mpk in-feed, week 24): 2923.8 ± 267.3 mg/dL
plasma cholesterol levels ([2]; 200 mpk in-feed, week 24): 415.1 ± 19.6
Plasma Triglyceride ([2]; 200 mpk in-feed, week 28): 2632.8 ± 269.6 mg/dL
plasma cholesterol levels ([2]; 200 mpk in-feed, week 28): 451.9 ± 23.6
Plasma Triglyceride ([2]; 200 mpk in-feed, week −2): 1965.3 ± 83.6 mg/dL
plasma cholesterol levels ([2]; 200 mpk in-feed, week −2): 189.5 ± 6.6
Plasma Triglyceride ([2]; 400 mpk in-feed, week 2): 2415.9 ± 119.5 mg/dL
plasma cholesterol levels ([2]; 400 mpk in-feed, week 2): 229.8 ± 6.0
Plasma Triglyceride ([2]; 400 mpk in-feed, week 4): 2763.1 ± 146.9 mg/dL
plasma cholesterol levels ([2]; 400 mpk in-feed, week 4): 252.3 ± 5.3
Plasma Triglyceride ([2]; 400 mpk in-feed, week 6): 2715.6 ± 111.4 mg/dL
plasma cholesterol levels ([2]; 400 mpk in-feed, week 6): 238.9 ± 6.6
Plasma Triglyceride ([2]; 400 mpk in-feed, week 8): 3185.0 ± 191.8 mg/dL
plasma cholesterol levels ([2]; 400 mpk in-feed, week 8): 278.8 ± 9.5
Plasma Triglyceride ([2]; 400 mpk in-feed, week 12): 3086.5 ± 121.3 mg/dL
plasma cholesterol levels ([2]; 400 mpk in-feed, week 12): 306.4 ± 7.0
Plasma Triglyceride ([2]; 400 mpk in-feed, week 16): 2648.9 ± 167.8 mg/dL
plasma cholesterol levels ([2]; 400 mpk in-feed, week 16): 304.6 ± 11.1
Plasma Triglyceride ([2]; 400 mpk in-feed, week 21): 2523.9 ± 220.7 mg/dL
plasma cholesterol levels ([2]; 400 mpk in-feed, week 21): 351.4 ± 13.8
Plasma Triglyceride ([2]; 400 mpk in-feed, week 24): 2439.5 ± 162.4 mg/dL
plasma cholesterol levels ([2]; 400 mpk in-feed, week 24): 374.7 ± 12.8
Plasma Triglyceride ([2]; 400 mpk in-feed, week 28): 2215.7 ± 179.3 mg/dL
plasma cholesterol levels ([2]; 400 mpk in-feed, week 28): 391.2 ± 14.7
Plasma Triglyceride ([2]; 400 mpk in-feed, week −2): 2211.5 ± 117.2 mg/dL
plasma cholesterol levels ([2]; 400 mpk in-feed, week −2): 195.5 ± 5.5
